Measurements taken from ChEMBL document CHEMBL1201862, “PubChem BioAssay data set” (2004).
One block for each molecule: values may come before it. Activity calls are given as the source filed them.

How the values were obtained:
Paired box protein Pax-8 = Paired box protein Pax-8 (Homo sapiens, UniProt Q06710); assay: PAX8 transcriptional activity inhibition in RMG-I – RMG-I cells, luciferase, cherry-pick, dose response (AID 687027); type: functional, cell-based;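 also: luciferase reporter driven by Pax8 target thyroperoxidase promoter measured by SteadyGlo luminescence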
[1] = general cell-killing toxicity readout – plate reader, dry powder samples, cytotoxicity control for PAX8 inhibitor project, dose response (AID 743021); type: functional, cell-based
cells = type: functional, cell-based
[2] = Luminescence-based dose response cell-based high throughput screening assay for cytotoxic compounds using the IEC-6 intestinal epithelial cell line. [Related pubchem assays: 1858 (Summary AID.), 1825 (Counterscreen.), 1907 (Confirmation screen.)]; type: functional
[3] = biological target: T1, Heat shock factor protein 1 (Mus musculus, UniProt P38532); assay: enhancement of HSF1-driven luciferase signal – cell-based, NIH3T3, luminescence, dose retest, confirmation (AID 435004); type: functional;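 also: stress induced by proteasome inhibitor MG132 added 30 min after compound; luciferase reporter driven by HSF1 response element in NIH3T3 cells; actives raise luminescence as potentiators of the MG132 stress response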
T1 sequence (P38532 whole entry): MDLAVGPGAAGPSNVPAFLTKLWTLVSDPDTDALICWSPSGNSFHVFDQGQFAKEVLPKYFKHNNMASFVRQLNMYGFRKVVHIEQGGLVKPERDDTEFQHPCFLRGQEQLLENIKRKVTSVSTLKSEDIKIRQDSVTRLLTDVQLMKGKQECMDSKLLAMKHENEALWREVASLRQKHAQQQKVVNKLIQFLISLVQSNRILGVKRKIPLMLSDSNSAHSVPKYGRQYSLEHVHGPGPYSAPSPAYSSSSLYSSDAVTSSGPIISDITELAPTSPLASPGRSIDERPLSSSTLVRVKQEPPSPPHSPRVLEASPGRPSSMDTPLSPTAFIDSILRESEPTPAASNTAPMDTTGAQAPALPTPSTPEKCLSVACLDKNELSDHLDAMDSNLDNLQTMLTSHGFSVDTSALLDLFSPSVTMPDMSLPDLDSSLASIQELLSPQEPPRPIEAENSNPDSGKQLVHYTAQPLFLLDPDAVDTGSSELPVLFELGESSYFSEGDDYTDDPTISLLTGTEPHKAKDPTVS

Activin receptor type-1 = Activin receptor type-1 (Homo sapiens, UniProt Q04771); assay: Navigating the Kinome. Panel member name: ACVR1; type: functional
[4] = biological target: Mitogen-activated protein kinase 8 (Homo sapiens, UniProt P45983); type: functional;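 also: value comes from one member of a kinome-wide kinase profiling panel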
Aurora kinase A = Aurora kinase A (Homo sapiens, UniProt O14965); type: functional;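 also: value from the Navigating the Kinome kinase panel profiling, panel entry STK6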
[5] = biological target: MAP/microtubule affinity-regulating kinase 3 (Homo sapiens, UniProt P27448); type: functional;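 also: MARK3 affinity measured as one member of a kinome panel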
[6] = biological target: High affinity nerve growth factor receptor (Homo sapiens, UniProt P04629); type: functional;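 also: NTRK1 tested as one member of a kinome-wide profiling panel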
[7] = biological target: Hepatocyte growth factor receptor (Homo sapiens, UniProt P08581); type: functional;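 also: kinase panel profiling across the kinome, with MET as the panel member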
Activated CDC42 kinase 1 = Activated CDC42 kinase 1 (Homo sapiens, UniProt Q07912); assay: Navigating the Kinome. Panel member name: ACK1; type: functional
[8] = biological target: Cyclin-dependent kinase 5 (Homo sapiens, UniProt Q00535); type: functional;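 also: CDK5 measured as one member of a kinase profiling panel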
[9] = biological target: Insulin-like growth factor 1 receptor (Homo sapiens, UniProt P08069); assay: Navigating the Kinome. Panel member name: IGF1R; type: functional
[10] = biological target: Dual specificity tyrosine-phosphorylation-regulated kinase 1B (Homo sapiens, UniProt Q9Y463); assay: Navigating the Kinome. Panel member name: DYRK1B; type: functional
Focal adhesion kinase 1 = Focal adhesion kinase 1 (Homo sapiens, UniProt Q05397); type: functional;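 also: measured as one member of a kinome panel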
[11] = biological target: Platelet-derived growth factor receptor alpha (Homo sapiens, UniProt P16234); assay: Navigating the Kinome. Panel member name: PDGFRA; type: functional
[12] = biological target: Cyclin-dependent kinase 7 (Homo sapiens, UniProt P50613); type: functional;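 also: value comes from a kinome-wide kinase profiling panel in which CDK7 is one member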
[13] = biological target: Vascular endothelial growth factor receptor 1 (Homo sapiens, UniProt P17948); type: functional;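 also: measured within a kinome-wide profiling panel, FLT1 as the panel member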
[14] = biological target: BDNF/NT-3 growth factors receptor (Homo sapiens, UniProt Q16620); type: functional;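 also: NTRK2 measured as one member of a broad kinome-wide kinase profiling panel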
[15] = biological target: Macrophage-stimulating protein receptor (Homo sapiens, UniProt Q04912); assay: Navigating the Kinome. Panel member name: MST1R; type: functional
[16] = biological target: Calcium/calmodulin-dependent protein kinase type II subunit alpha (Homo sapiens, UniProt Q9UQM7); assay: Navigating the Kinome. Panel member name: CAMK2A; type: functional
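For IC50 in this document: cell viability measured after two days of compound exposure.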

Sequence of Cyclin-dependent kinase 7 (P50613 whole entry): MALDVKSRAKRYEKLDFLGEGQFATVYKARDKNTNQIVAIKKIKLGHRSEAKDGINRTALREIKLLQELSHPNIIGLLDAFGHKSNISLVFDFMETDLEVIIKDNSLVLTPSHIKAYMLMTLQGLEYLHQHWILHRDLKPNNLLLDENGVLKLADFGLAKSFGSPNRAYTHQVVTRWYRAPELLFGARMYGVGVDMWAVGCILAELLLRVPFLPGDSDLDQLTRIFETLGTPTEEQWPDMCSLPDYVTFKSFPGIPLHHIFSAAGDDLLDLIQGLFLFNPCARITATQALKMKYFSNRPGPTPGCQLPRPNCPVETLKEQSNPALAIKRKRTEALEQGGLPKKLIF
Sequence of Macrophage-stimulating protein receptor (Q04912 25-304 limits assumed): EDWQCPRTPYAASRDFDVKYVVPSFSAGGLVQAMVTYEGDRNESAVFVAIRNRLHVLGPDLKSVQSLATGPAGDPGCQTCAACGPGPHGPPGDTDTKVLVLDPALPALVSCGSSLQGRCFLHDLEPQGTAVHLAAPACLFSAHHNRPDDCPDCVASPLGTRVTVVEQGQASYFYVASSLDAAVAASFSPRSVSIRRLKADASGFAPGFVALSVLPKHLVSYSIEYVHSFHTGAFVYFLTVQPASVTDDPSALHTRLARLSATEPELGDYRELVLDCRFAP
Sequence of Macrophage-stimulating protein receptor (Q04912 310-1400 limits assumed): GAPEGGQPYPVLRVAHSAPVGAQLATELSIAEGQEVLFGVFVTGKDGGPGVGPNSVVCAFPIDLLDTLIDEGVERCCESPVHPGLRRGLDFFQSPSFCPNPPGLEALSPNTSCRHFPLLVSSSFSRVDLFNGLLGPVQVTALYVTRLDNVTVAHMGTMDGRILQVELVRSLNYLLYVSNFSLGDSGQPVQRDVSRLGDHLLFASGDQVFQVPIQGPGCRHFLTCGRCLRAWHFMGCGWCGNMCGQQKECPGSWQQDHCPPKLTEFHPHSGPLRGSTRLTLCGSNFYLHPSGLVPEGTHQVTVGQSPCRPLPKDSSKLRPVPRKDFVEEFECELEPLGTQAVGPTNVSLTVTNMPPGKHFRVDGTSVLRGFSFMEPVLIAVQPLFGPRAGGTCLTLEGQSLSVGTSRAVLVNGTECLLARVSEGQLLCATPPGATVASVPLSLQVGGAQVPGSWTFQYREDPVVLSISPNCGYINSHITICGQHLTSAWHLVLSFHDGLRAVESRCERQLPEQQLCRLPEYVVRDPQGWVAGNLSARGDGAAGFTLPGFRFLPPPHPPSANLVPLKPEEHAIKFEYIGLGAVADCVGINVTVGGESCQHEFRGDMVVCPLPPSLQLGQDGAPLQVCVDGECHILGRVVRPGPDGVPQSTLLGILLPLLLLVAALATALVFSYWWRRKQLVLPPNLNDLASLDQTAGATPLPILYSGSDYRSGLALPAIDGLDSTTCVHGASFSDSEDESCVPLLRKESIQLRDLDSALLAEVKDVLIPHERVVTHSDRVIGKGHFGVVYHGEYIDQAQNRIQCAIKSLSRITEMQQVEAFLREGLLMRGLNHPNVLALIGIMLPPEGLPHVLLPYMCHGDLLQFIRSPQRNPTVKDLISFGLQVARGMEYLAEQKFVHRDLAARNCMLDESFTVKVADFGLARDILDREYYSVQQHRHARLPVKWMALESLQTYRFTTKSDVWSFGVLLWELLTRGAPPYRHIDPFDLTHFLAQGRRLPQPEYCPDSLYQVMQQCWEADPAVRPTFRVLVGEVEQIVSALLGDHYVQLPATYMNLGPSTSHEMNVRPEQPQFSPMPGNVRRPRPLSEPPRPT
Sequence of Focal adhesion kinase 1 (Q05397 whole entry): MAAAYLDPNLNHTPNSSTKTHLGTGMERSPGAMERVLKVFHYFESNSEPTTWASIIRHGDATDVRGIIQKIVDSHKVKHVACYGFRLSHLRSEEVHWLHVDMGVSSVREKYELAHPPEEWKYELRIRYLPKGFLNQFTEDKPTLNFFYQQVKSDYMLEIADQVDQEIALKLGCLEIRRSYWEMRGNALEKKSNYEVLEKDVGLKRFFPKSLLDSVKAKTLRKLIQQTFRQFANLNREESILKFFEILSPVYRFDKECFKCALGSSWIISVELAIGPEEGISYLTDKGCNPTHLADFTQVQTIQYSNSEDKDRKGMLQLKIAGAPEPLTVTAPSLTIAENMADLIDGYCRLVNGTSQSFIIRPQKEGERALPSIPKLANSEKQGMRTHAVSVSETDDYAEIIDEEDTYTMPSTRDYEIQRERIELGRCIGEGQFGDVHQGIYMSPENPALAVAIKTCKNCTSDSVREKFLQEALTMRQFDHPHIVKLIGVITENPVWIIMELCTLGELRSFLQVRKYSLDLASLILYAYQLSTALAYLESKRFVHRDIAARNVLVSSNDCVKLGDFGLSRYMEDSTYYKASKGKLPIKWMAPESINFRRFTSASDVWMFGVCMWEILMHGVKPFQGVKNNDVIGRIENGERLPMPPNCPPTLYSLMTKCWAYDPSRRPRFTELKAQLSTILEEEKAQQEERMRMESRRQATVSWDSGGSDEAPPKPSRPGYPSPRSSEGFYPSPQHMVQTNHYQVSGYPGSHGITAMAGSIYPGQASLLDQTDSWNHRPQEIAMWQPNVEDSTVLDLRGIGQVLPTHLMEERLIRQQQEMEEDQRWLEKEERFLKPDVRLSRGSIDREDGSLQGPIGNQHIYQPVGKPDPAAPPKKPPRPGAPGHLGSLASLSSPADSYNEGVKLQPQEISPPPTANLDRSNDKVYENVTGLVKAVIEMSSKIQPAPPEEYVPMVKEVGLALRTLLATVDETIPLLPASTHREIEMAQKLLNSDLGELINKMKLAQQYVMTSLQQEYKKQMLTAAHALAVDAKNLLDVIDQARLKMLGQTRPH
Sequence of Hepatocyte growth factor receptor (P08581 whole entry): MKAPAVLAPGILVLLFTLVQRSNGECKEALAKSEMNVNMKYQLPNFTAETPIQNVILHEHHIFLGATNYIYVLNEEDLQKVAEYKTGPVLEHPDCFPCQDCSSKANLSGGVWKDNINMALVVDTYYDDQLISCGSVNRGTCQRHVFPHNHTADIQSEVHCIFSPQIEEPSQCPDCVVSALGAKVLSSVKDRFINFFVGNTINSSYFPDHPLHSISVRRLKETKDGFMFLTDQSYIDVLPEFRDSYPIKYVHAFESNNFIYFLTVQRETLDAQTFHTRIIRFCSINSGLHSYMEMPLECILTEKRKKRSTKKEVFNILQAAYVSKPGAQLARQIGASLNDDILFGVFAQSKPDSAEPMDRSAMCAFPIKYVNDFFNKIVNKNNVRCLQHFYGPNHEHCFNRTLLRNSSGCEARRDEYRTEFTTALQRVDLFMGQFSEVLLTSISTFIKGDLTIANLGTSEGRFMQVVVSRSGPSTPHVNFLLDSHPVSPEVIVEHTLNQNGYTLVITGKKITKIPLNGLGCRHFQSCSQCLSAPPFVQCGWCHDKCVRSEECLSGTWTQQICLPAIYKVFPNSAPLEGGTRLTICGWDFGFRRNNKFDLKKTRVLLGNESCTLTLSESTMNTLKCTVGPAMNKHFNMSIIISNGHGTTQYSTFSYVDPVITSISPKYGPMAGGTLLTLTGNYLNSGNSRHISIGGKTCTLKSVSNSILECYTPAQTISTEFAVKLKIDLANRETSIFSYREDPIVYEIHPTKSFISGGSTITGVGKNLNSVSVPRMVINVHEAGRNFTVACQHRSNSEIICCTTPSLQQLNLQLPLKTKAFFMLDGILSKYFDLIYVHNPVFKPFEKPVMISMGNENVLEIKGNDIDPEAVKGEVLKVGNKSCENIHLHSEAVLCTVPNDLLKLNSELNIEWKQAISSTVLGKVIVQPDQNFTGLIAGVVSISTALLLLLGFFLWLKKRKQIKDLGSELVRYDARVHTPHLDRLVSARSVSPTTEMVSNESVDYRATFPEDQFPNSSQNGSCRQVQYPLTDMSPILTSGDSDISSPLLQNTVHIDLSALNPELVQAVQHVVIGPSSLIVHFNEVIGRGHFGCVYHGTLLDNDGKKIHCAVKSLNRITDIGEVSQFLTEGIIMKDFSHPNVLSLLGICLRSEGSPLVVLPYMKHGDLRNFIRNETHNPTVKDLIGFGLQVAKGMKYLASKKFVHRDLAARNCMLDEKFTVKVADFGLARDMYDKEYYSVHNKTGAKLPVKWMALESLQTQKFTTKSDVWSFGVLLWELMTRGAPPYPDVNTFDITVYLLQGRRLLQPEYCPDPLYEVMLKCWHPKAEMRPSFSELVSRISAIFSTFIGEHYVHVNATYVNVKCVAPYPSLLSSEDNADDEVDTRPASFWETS
Sequence of Activin receptor type-1 (Q04771 whole entry): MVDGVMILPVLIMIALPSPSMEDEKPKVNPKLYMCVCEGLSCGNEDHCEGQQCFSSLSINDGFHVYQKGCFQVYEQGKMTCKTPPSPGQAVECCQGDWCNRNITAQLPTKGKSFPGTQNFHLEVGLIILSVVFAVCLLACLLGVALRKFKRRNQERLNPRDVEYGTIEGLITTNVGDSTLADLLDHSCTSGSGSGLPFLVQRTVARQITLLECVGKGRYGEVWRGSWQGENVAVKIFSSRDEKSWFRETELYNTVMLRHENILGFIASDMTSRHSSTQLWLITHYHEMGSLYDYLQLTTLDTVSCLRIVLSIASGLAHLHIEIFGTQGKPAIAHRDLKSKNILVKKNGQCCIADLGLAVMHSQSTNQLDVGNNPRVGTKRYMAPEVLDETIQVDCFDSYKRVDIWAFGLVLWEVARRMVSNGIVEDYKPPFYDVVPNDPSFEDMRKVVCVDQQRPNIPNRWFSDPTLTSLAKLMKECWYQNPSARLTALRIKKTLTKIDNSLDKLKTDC
Sequence of Cyclin-dependent kinase 5 (Q00535 whole entry): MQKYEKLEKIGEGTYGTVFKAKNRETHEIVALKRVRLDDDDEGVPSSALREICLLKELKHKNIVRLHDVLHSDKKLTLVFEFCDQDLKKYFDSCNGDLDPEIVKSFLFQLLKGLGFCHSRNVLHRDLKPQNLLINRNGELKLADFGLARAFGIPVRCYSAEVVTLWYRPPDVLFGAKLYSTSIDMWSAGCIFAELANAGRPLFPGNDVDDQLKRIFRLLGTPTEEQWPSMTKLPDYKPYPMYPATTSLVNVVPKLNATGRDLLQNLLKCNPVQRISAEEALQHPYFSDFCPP

Compound: O=C(NC1=C(NC2CCS(=O)(=O)C2)C(=O)c2ccccc2C1=O)c1ccccc1 (configuration not stated)
AC50 (Paired box protein Pax-8): 6.4 µM (active)
AC50 [1]: 36.5 µM (active)

Compound: CCCC(=O)NC(c1ccc(N(C)C)cc1)c1ccc2cccnc2c1O (configuration not stated)
EC50 (cells): 4.76 µM (active)
IC50 [2]: 1.55 µM (active)
EC50 [3]: > 260 µM (inactive)

Ki (Activin receptor type-1): > 3.98 µM (inactive)
Ki [4]: > 5.01 µM (inactive)
Ki (Aurora kinase A): > 1.58 µM (inactive)
Ki [5]: 0.398 µM (active)
Ki [6]: 2.51 µM (active)
Ki [7]: 0.398 µM (active)
Ki (Activated CDC42 kinase 1): > 3.98 µM (inactive)
Ki [8]: 0.794 µM (active)
Ki [9]: > 2.51 µM (inactive)
Ki [10]: > 2 µM (inactive)
Ki (Focal adhesion kinase 1): 2 µM (active)
Ki [11]: > 2.51 µM (inactive)
Ki [12]: 1.26 µM (active)
Ki [13]: > 2.51 µM (inactive)
Ki [14]: > 3.98 µM (inactive)
Ki [15]: 0.1 µM (active)
Ki [16]: 0.501 µM (active)
Compound: O=C1NC(=O)C(c2c[nH]c3ccccc23)=C1c1nc(N2CCNCC2)nc2ccccc12
